Reference: the NIST ThermoML archive (doi:10.1016/j.jct.2011.12.025)

Test: xn = mol fraction of the nth substance listed
Settings: 296.15 K, 101 kPa, Liquid, WTW LF538 Conductivity Meter

CCCCCCCC[n+]1ccn(C)c1.F[B-](F)(F)F [1-methyl-3-octylimidazolium tetrafluoroborate] + O
Settings | electrical conductivity [S/m]
x1 = 0.000109 | 0.067
x1 = 0.000164 | 0.095
x1 = 0.000219 | 0.123
x1 = 0.000274 | 0.149
x1 = 0.000326 | 0.172
x1 = 0.000384 | 0.196
x1 = 0.000439 | 0.22
x1 = 0.000494 | 0.24
x1 = 0.000549 | 0.262
x1 = 0.000605 | 0.284
x1 = 0.00066 | 0.305
x1 = 0.000715 | 0.326
x1 = 0.000772 | 0.346
x1 = 0.000883 | 0.386
x1 = 0.000995 | 0.424
x1 = 0.001107 | 0.463

CCCCCCCCCCn1cc[n+](C)c1.F[B-](F)(F)F [1-decyl-3-methylimidazolium tetrafluoroborate] + O
Settings | electrical conductivity [S/m]
x1 = 2.5e-05 | 0.018
x1 = 3.8e-05 | 0.026
x1 = 5.1e-05 | 0.034
x1 = 6.4e-05 | 0.042
x1 = 7.6e-05 | 0.049
x1 = 8.9e-05 | 0.056
x1 = 0.000102 | 0.063
x1 = 0.000115 | 0.07
x1 = 0.000128 | 0.076
x1 = 0.000139 | 0.082
x1 = 0.000153 | 0.089
x1 = 0.000166 | 0.096
x1 = 0.000179 | 0.101
x1 = 0.000204 | 0.113
x1 = 0.00023 | 0.125
x1 = 0.000256 | 0.137

CCCCCCn1cc[n+](C)c1.F[B-](F)(F)F [1-hexyl-3-methylimidazolium tetrafluoroborate] + O
Settings | electrical conductivity [S/m]
x1 = 0.000466 | 0.231
x1 = 0.000711 | 0.329
x1 = 0.000949 | 0.419
x1 = 0.001193 | 0.505
x1 = 0.001435 | 0.584
x1 = 0.001677 | 0.663
x1 = 0.001925 | 0.74
x1 = 0.002172 | 0.812
x1 = 0.002421 | 0.875
x1 = 0.002671 | 0.949
x1 = 0.002925 | 1.014
x1 = 0.003177 | 1.07
x1 = 0.003433 | 1.126
x1 = 0.003948 | 1.25
x1 = 0.004469 | 1.36
x1 = 0.005 | 1.447
